{"source": "paper PMC2630805", "about": "“Anticancer Alkaloid Lamellarins Inhibit Protein Kinases” (Marine Drugs, 2008)", "key": {"CK1": {"target": "CK1", "assay": "CK1 kinase assay (CKS peptide)", "assay_type": "biochemical, porcine", "conditions": "15 μM ATP; cell '− (x)' = no inhibitory activity detected, x = highest concentration tested", "description": "CK1 was purified from porcine brain by affinity chromatography on immobilized axin fragment. The mixture of native CK1 isoforms (essentially CK1δ and CK1ɛ) was assayed in three-fold diluted buffer C, using 25 μM CKS peptide, a CK1 selective substrate (RRKHAAIGpSAYSITA, synthesized by Millegen (Labège, France). Assays were performed for 30 min. at 30°C, as described for GSK-3."}, "Akt1/PKB α (h)": {"target": "Akt1/PKB α (h) (Homo sapiens, UniProt P31749)", "assay": "CEREP Kinase Selectivity Panel", "assay_type": "biochemical", "conditions": "10 μM lamellarin N"}, "CDC2/CDK1 (h) (cycB)": {"target": "CDC2/CDK1 (h) (cycB) (Homo sapiens, UniProt P06493)", "sequence (P06493 whole entry)": "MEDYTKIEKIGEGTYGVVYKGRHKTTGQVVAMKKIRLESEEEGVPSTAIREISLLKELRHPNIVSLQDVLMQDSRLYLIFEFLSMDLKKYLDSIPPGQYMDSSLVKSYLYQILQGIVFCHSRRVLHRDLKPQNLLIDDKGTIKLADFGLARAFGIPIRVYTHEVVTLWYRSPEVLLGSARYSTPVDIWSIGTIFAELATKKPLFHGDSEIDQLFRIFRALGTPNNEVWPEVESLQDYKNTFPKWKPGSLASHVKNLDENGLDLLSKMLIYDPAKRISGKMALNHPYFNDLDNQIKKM", "sequence (P14635 whole entry partner)": "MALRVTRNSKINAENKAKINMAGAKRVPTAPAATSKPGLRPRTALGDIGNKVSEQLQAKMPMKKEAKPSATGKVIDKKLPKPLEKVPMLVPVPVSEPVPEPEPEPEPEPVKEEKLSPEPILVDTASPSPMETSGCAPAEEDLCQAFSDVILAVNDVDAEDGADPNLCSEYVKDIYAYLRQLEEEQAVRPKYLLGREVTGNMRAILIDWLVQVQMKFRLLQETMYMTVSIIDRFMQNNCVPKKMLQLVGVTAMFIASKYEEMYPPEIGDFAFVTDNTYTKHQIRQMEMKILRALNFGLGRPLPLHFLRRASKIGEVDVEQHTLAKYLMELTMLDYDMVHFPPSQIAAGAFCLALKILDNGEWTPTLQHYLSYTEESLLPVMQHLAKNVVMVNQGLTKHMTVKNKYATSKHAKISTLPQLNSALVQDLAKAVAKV", "assay": "CEREP Kinase Selectivity Panel", "assay_type": "biochemical", "conditions": "10 μM lamellarin N"}, "[1]": {"target": "FLT-1 kinase (h) (VEGFR1) (Homo sapiens, UniProt P17948)", "sequence (P17948 27-1338)": "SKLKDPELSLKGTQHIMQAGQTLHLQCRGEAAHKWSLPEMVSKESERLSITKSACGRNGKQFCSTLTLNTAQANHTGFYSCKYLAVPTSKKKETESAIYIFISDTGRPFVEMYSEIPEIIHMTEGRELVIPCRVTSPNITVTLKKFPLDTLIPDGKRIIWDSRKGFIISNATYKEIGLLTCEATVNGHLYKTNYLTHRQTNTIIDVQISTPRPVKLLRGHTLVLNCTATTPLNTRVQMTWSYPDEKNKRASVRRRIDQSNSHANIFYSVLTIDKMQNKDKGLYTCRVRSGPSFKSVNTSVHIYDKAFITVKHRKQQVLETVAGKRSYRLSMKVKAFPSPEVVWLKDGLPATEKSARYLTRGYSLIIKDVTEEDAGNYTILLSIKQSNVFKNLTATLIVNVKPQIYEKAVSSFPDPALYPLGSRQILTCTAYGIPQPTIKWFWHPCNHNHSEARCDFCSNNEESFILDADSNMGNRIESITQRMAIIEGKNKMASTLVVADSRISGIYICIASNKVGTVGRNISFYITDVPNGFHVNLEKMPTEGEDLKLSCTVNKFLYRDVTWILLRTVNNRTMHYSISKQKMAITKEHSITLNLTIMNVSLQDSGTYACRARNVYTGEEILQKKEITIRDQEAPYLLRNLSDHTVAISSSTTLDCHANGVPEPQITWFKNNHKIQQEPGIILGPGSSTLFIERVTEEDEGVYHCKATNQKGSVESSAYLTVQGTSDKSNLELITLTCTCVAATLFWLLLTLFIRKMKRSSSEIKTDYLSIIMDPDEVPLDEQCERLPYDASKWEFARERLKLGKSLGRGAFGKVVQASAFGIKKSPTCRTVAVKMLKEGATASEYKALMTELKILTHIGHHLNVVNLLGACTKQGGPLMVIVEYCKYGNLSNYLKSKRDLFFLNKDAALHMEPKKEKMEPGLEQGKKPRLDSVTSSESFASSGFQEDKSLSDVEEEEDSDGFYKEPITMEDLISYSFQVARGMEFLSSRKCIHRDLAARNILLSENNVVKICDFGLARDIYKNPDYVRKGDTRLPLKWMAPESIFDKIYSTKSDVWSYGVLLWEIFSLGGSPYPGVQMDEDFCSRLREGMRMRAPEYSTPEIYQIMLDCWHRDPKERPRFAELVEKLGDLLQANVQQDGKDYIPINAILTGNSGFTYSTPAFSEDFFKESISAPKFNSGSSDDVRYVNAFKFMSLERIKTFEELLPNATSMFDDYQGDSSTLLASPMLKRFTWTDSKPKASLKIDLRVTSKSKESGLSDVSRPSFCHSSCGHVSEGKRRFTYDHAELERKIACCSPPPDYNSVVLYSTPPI", "assay": "CEREP Kinase Selectivity Panel", "assay_type": "biochemical", "conditions": "10 μM lamellarin N"}, "CDK5/p25": {"target": "CDK5/p25 (Homo sapiens, UniProt Q00535)", "assay": "CDK5/p25 kinase assay (histone H1)", "protocol": "Blank values were subtracted and activities calculated as pmoles of phosphate incorporated during a 30 min. incubation. The activities were expressed in % of the maximal activity, i.e. in the absence of inhibitors. Controls were performed with appropriate dilutions of dimethylsulfoxide. Unless otherwise stated, the P81 phosphocellulose assay was used.\nIts activity was assayed with histone H1 in buffer C as described for CDK1/cyclin B."}, "p38δ kinase (h)": {"target": "p38δ kinase (h) (Homo sapiens, UniProt O15264)", "sequence (O15264 whole entry)": "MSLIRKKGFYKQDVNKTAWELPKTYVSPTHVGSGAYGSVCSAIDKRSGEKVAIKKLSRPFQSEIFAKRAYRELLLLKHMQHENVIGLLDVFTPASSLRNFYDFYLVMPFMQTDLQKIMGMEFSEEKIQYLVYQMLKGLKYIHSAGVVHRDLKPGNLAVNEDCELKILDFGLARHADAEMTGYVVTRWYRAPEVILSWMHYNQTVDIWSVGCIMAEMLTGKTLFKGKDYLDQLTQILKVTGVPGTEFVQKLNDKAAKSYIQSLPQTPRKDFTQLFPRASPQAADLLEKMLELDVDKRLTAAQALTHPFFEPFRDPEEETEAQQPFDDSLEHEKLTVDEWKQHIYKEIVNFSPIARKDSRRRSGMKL", "assay": "CEREP Kinase Selectivity Panel", "assay_type": "biochemical", "conditions": "10 μM lamellarin N"}, "CDK2 (h) (cycE)": {"target": "CDK2 (h) (cycE) (Homo sapiens, UniProt P24941)", "assay": "CEREP Kinase Selectivity Panel", "assay_type": "biochemical", "conditions": "10 μM lamellarin N"}, "Syk (h)": {"target": "Syk (h) (Homo sapiens, UniProt P43405)", "assay": "CEREP Kinase Selectivity Panel", "assay_type": "biochemical", "conditions": "10 μM lamellarin N"}, "IRK (h) (InsR)": {"target": "IRK (h) (InsR) (Homo sapiens, UniProt P06213)", "assay": "CEREP Kinase Selectivity Panel", "assay_type": "biochemical", "conditions": "10 μM lamellarin N"}, "PKA (h)": {"target": "PKA (h) (Homo sapiens, UniProt P17612)", "assay": "CEREP Kinase Selectivity Panel", "assay_type": "biochemical", "conditions": "10 μM lamellarin N"}, "FLT-3 kinase (h)": {"target": "FLT-3 kinase (h) (Homo sapiens, UniProt P36888)", "assay": "CEREP Kinase Selectivity Panel", "assay_type": "biochemical", "conditions": "10 μM lamellarin N"}, "PKCα (h)": {"target": "PKCα (h) (Homo sapiens, UniProt P17252)", "assay": "CEREP Kinase Selectivity Panel", "assay_type": "biochemical", "conditions": "10 μM lamellarin N"}, "Lck kinase (h)": {"target": "Lck kinase (h) (Homo sapiens, UniProt P06239)", "sequence (P06239 whole entry)": "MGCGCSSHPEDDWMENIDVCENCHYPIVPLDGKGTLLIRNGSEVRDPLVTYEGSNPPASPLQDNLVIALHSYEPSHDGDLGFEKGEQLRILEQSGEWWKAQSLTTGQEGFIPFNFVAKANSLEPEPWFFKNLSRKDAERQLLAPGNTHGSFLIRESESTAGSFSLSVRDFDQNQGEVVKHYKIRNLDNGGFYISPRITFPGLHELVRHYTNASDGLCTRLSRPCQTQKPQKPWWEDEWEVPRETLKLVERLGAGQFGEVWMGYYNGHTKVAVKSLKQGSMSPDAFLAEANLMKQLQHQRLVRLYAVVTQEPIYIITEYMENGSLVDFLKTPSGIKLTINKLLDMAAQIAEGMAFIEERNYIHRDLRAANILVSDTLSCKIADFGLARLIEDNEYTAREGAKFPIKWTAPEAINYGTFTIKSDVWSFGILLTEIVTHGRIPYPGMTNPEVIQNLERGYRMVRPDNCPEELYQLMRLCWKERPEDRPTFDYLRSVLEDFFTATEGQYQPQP", "assay": "CEREP Kinase Selectivity Panel", "assay_type": "biochemical", "conditions": "10 μM lamellarin N"}, "CDK1/cyclin B": {"target": "CDK1/cyclin B", "assay": "CDK1/cyclin B kinase assay (histone H1, P81 phosphocellulose)", "assay_type": "biochemical, starfish (Marthasterias glacialis)", "conditions": "15 μM ATP; cell '− (x)' = no inhibitory activity detected, x = highest concentration tested", "description": "ATP (3,000 Ci/mmol; 1 mCi/ml) in a final volume of 30 μl. […] The wet filters were counted in the presence of 1 ml ACS (Amersham) scintillation fluid."}, "CaMK2α (h)": {"target": "CaMK2α (h) (Homo sapiens, UniProt Q9UQM7)", "assay": "CEREP Kinase Selectivity Panel", "assay_type": "biochemical", "conditions": "10 μM lamellarin N"}, "p38γ kinase (h)": {"target": "p38γ kinase (h) (Homo sapiens, UniProt P53778)", "assay": "CEREP Kinase Selectivity Panel", "assay_type": "biochemical", "conditions": "10 μM lamellarin N"}, "c-Met kinase (h)": {"target": "c-Met kinase (h) (Homo sapiens, UniProt P08581)", "sequence (P08581 25-1390)": "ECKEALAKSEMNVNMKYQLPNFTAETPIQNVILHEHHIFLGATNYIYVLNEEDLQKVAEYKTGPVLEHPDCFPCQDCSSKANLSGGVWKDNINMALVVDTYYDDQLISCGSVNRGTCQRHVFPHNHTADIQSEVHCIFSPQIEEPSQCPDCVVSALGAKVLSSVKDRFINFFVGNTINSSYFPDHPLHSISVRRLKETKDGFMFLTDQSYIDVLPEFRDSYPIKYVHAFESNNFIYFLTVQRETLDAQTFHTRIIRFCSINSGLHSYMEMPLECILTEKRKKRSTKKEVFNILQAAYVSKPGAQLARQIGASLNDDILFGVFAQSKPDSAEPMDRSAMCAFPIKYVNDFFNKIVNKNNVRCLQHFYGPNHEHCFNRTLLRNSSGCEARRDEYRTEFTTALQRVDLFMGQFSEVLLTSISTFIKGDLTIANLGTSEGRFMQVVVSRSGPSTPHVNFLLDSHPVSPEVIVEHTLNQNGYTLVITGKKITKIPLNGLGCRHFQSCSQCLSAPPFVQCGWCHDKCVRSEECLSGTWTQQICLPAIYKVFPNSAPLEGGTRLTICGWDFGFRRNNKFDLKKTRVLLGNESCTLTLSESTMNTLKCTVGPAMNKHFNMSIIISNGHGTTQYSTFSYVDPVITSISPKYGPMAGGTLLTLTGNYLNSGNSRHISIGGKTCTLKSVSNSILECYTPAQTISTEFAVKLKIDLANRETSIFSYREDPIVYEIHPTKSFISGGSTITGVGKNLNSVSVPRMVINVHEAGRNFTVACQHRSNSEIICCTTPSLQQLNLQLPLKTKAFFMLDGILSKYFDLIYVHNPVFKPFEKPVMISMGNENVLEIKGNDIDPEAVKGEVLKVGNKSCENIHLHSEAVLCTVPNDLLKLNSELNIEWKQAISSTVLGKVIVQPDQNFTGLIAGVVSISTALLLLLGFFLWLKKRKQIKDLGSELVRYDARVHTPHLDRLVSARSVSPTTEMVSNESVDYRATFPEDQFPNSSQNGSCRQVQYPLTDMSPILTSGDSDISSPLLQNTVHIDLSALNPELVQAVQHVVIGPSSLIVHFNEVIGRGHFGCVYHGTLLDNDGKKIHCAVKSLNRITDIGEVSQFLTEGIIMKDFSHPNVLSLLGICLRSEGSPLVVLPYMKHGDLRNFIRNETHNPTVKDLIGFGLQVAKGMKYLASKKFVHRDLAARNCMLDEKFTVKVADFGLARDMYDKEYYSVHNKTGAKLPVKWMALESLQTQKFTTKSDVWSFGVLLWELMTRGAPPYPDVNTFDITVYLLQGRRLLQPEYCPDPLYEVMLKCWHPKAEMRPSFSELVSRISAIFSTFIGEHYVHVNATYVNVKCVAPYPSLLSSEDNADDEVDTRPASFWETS", "assay": "CEREP Kinase Selectivity Panel", "assay_type": "biochemical", "conditions": "10 μM lamellarin N"}, "GSK-3α/ß": {"target": "GSK-3α/ß", "assay": "GSK-3α/β kinase assay (GS-1 substrate)", "assay_type": "biochemical, porcine", "conditions": "15 μM ATP; cell '− (x)' = no inhibitory activity detected, x = highest concentration tested", "description": "GSK-3 α/β was purified from porcine brain by affinity chromatography on immobilized axin [39]."}, "RSK2 (h)": {"target": "RSK2 (h) (Homo sapiens, UniProt P51812)", "assay": "CEREP Kinase Selectivity Panel", "assay_type": "biochemical", "conditions": "10 μM lamellarin N"}, "Src kinase (h)": {"target": "Src kinase (h) (Homo sapiens, UniProt P12931)", "assay": "CEREP Kinase Selectivity Panel", "assay_type": "biochemical", "conditions": "10 μM lamellarin N"}, "[2]": {"test_system": "PARP, p53, p21^CIP1, Mcl-1 in SH-SY5Y cells", "assay_type": "cell-based, human", "protocol": "SH-SY5Y cells treated at time 0 with 1 μM lamellarin N. Cells were harvested at different time-points and protein extracted for SDS-PAGE followed by Western blot analysis using antibodies directed against PARP, p53, p21^CIP1, or Mcl-1, as described in the materials and methods section. β-actin was used as loading control. “Ctrl” denoted untreated sample after 10 hours.\nAt given time points and lamellarin doses, SH-SY5Y cells were harvested in phosphate buffered saline (PBS) with commercially available protease inhibitors (Roche, 11836145001). Cells were homogenized by sonication in homogenization buffer supplemented with 0.1% NP-40 and protease inhibitors. The homogenization buffer consist of: 25mM MOPS, 15mM EGTA, 15mM MgCl2, 1mM sodium orthovanadate, 1mM sodium fluoride, 60mM β-glycerophosphate, 2mM DTT, 15mM p-nitrophenylphosphate, and 1mM phenyl phosphate-di-sodium salt (all reagents supplied by Sigma). Sonication retrieved proteins. Cellular proteins were subjected to electrophoresis in SDS 10% polyacrylamide gels and transferred to a PVDF membrane (Invitrogen). Membranes were incubated with primary antibodies directed against p53 (Santa Cruz Biotech, sc-263) (1:1000), p21^CIP1 (Calbiochem, OP64) (1:1000) or poly (ADP-ribose) polymerase (PARP) (Santa Cruz Biotech, sc-7150) (1:500). Appropriate secondary antibodies conjugated to horseradish peroxidase (Biorad) were added to visualize the proteins using the ECL detection system."}, "Ret kinase (h)": {"target": "Ret kinase (h) (Homo sapiens, UniProt P07949)", "assay": "CEREP Kinase Selectivity Panel", "assay_type": "biochemical", "conditions": "10 μM lamellarin N"}, "FGFR4 kinase (h)": {"target": "FGFR4 kinase (h) (Homo sapiens, UniProt P22455)", "sequence (P22455 22-802)": "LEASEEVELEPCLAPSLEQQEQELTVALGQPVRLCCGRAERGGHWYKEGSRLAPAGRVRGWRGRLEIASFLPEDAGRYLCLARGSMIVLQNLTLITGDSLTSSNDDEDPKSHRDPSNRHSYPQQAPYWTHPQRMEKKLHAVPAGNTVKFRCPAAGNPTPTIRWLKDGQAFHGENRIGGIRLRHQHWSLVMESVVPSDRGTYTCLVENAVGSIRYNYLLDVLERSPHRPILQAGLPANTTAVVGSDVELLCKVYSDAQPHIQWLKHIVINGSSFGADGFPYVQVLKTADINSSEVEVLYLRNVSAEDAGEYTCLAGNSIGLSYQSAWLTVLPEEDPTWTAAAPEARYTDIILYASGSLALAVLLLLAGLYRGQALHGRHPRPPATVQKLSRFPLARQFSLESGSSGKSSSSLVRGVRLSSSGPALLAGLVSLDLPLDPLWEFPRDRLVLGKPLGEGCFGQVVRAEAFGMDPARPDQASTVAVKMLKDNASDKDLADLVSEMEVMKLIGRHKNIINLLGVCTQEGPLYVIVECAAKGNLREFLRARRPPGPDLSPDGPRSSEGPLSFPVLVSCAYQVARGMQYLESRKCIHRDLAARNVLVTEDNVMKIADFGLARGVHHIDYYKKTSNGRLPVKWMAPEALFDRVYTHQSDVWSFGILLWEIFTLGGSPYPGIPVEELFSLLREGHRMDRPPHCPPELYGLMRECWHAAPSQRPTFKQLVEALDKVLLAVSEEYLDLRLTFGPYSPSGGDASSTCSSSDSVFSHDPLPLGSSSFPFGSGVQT", "assay": "CEREP Kinase Selectivity Panel", "assay_type": "biochemical", "conditions": "10 μM lamellarin N"}}, "note": "pIC50: −log10 of the molar value."}
{"smiles": "COc1ccc(-c2c3c4cc(OC)c(O)cc4oc(=O)c3n3ccc4cc(O)c(OC)cc4c23)cc1O", "note": "[Compound 6, lamellarin N]", "values": [{"measurement": "pIC50", "setting": "CK1", "result": "< 5.00"}, {"measurement": "Activity (% of control)", "setting": "Akt1/PKB α (h)", "result": "104.6 % of control"}, {"measurement": "Activity (% of control)", "setting": "CDC2/CDK1 (h) (cycB)", "result": "20.4 % of control"}, {"measurement": "Activity (% of control)", "setting": "[1]", "result": "4.0 % of control"}, {"measurement": "pIC50", "setting": "CDK5/p25", "result": 7.60}, {"measurement": "Activity (% of control)", "setting": "p38δ kinase (h)", "result": "96.0 % of control"}, {"measurement": "Activity (% of control)", "setting": "CDK2 (h) (cycE)", "result": "57.1 % of control"}, {"measurement": "Activity (% of control)", "setting": "Syk (h)", "result": "97.1 % of control"}, {"measurement": "Activity (% of control)", "setting": "IRK (h) (InsR)", "result": "46.7 % of control"}, {"measurement": "Activity (% of control)", "setting": "PKA (h)", "result": "80.0 % of control"}, {"measurement": "Activity (% of control)", "setting": "FLT-3 kinase (h)", "result": "0.4 % of control"}, {"measurement": "Activity (% of control)", "setting": "PKCα (h)", "result": "91.7 % of control"}, {"measurement": "Activity (% of control)", "setting": "Lck kinase (h)", "result": "7.1 % of control"}, {"measurement": "pIC50", "setting": "CDK1/cyclin B", "result": 7.15}, {"measurement": "Activity (% of control)", "setting": "CaMK2α (h)", "result": "38.2 % of control"}, {"measurement": "Activity (% of control)", "setting": "p38γ kinase (h)", "result": "79.6 % of control"}, {"measurement": "Activity (% of control)", "setting": "c-Met kinase (h)", "result": "92.1 % of control"}, {"measurement": "pIC50", "setting": "GSK-3α/ß", "result": 8.30}, {"measurement": "Activity (% of control)", "setting": "RSK2 (h)", "result": "44.5 % of control"}, {"measurement": "Activity (% of control)", "setting": "Src kinase (h)", "result": "56.2 % of control"}, {"measurement": "effect on survival factor Mcl-1 expression", "setting": "[2]", "result": "not down-regulated"}, {"measurement": "lowest concentration inducing PARP cleavage and p53 and p21 expression", "setting": "[2]", "result": 0.1, "unit": "µM"}, {"measurement": "time at which induction of PARP cleavage and p53 and p21 expression already takes place", "setting": "[2]", "result": "≤ 6", "unit": "h"}, {"measurement": "Activity (% of control)", "setting": "Ret kinase (h)", "result": "1.8 % of control"}, {"measurement": "Activity (% of control)", "setting": "FGFR4 kinase (h)", "result": "62.5 % of control"}]}
